What was measured:
[1] = test system: Human gastric cancer cells (MKN-45); assay: Inhibitory activity against the proliferation of human gastric cancer cells (MKN-45); format: cell-based; conditions: 72 h, MKN-45, 1% FBS RPMI1640, 3 days, Cell Counting Kit-8
Description: Human gastric cancer cells (MKN-45) were suspended in a 1% FBS-containing RPMI1640 medium (purchased from Sigma). The cell suspension (1×10^4 cells/ml) was added in a 96-well plate for cell culture (purchased from NUNC, Production No. 167008) at 0.1 ml/well, and then cultured in a 5% CO2 incubator (37° C.) overnight. After the culture, each well was supplied with 0.1 ml of a test substance diluted with a 1% FBS-containing RPMI1640 medium, followed by culturing in a 5% CO2 incubator (37° C.) for 3 days. After the culture, each well was supplied with 10 μl of Cell Counting Kit-8 (purchased from DOJINDO, Production No. 343-07623), followed by incubation in a 5% CO2 incubator (37° C.) for about 1.5 hrs. After the incubation, using the Plate Reader MTP-500 (Corona Electric), the absorbance of each well was determined at a measurement wavelength of 450 nm and a reference wavelength of 660 nm.

[2] = biological target: T1, HGFR (Homo sapiens, UniProt P08581); assay: Inhibitory activity against the HGFR autophosphorylation using ELISA (MKN-45 cells); format: cell-based; conditions: 1 hr with test substance
T1 construct: endogenous in cells; host or cells: MKN-45 human gastric cancer cells
T1 sequence (P08581 25-1390): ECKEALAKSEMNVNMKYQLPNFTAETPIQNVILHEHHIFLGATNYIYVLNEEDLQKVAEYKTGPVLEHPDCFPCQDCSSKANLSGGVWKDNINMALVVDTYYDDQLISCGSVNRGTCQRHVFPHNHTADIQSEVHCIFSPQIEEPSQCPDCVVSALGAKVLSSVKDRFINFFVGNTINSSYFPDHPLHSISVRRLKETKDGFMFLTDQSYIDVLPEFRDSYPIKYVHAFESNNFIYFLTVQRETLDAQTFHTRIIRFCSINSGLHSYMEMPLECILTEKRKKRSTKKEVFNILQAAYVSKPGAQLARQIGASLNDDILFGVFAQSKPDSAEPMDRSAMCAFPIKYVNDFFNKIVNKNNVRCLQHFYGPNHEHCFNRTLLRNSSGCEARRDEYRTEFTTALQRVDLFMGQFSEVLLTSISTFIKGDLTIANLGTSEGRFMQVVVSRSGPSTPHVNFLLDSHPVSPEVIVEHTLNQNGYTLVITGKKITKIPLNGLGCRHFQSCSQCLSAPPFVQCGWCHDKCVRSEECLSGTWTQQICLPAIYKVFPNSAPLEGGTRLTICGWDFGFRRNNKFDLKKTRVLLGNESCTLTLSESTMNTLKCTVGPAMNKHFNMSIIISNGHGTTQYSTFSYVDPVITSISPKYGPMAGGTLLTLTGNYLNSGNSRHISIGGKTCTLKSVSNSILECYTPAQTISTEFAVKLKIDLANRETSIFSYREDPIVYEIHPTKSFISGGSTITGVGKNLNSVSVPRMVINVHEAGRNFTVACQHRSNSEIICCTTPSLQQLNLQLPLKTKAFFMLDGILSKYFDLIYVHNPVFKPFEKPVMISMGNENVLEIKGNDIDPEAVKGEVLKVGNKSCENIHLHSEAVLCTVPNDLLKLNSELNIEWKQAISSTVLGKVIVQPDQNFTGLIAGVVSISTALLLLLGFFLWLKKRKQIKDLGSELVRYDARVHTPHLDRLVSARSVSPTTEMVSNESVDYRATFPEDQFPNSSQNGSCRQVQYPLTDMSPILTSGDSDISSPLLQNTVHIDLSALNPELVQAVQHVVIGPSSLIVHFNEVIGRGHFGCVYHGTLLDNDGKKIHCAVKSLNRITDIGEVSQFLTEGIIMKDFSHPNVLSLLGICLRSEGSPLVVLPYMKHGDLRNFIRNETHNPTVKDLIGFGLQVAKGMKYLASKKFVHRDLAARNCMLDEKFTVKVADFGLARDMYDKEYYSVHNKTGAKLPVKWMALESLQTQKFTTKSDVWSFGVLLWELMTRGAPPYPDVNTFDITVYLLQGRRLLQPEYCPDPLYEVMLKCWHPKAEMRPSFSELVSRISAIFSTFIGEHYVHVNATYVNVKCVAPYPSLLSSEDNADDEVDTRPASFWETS
Description: Human gastric cancer cells (MKN-45) were suspended in a 1% FBS-containing RPMI1640 medium (purchased from Sigma). The cell suspension (1×10^5 cells/ml) was put in a 96-well plate for cell culture (purchased from NUNC, Production No. 167008) at 0.1 ml/well, and then cultured in a 5% CO2 incubator (37° C.) overnight. After the culture, from each well was removed the supernatant, followed by adding 0.05 ml of a 1% FBS-containing RPMI1640 medium. Then, the well was supplied with 0.05 ml of the test substance dissolved in dimethyl sulfoxide (diluted with a 1% FBS-containing RPMI1640 medium), followed by culturing in a 5% CO2 incubator (37° C.) for 1 hr. From each well was removed the supernatant, and each well was washed with 150 μl of PBS, followed by adding 100 μl of a lysis buffer (50 mM Hepes (pH 7.4), 150 mM NaCl, 10% (v/v) glycerol, 1% Triton X-100, 1.5 mM MgCl2, 1 mM EDTA (pH 8.0), 100 mM NaF, 1 mM PMSF, 10 μg/ml Aprotinin, 50 μg/ml Leupeptin, 1 μg/ml Pepstatin A and 1 mM Na3VO4). The plate was shaken at 4° C. for 1 hr to prepare the cell extract.
To a 96-well plate for ELISA (purchased from COSTAR, Production No. 3369) was added 50 μl of 60 mM bicarbonate buffer (pH 9.6) containing 50 μg/ml of an anti-phosphotyrosine antibody (PY20, purchased from Transduction Laboratory, Production No. P-11120). The plate was incubated at 4° C. overnight.
Each well of the plate prepared in 2. was washed three times with 200 μl of PBS, and supplied with 150 μl of 3% BSA/PBS, followed by incubating at room temperature for 2 hrs. Each well was washed three times with 200 μl of PBS, and supplied with 50 μl of the above cell extract, followed by incubating at 4° C. overnight. After the incubation, each well was washed three times with 250 μl of a washing solution (0.1% BSA, 20 mM Tris-HCl (pH 7.6), 137 mM NaCl, and 0.05% Tween-20), and supplied with 70 μl of anti-HGFR antibody (h-Met(C-12), purchased from Santa Cruz, Production No. sc-10) 2,000-fold diluted with a reaction solution (1% BSA, 20 mM Tris-HCl (pH 7.6), 137 mM NaCl and 0.05% Tween-20), followed by incubating at room temperature for 1 hr. The well was washed three times with 250 μl of the washing solution, and supplied with 70 μl of peroxidase-labelled anti-rabbit IgG antibody (purchased from Cell Signaling, Production No. 7074) 2,000-fold diluted with the reaction solution, followed by incubating at room temperature for 1 hr. Each well was washed three times with 250 μl of the washing solution, and supplied with 70 μl of TMB Membrane Peroxidase Substrate (purchased from Funakoshi, Production No. 50-5077-03), followed by incubating at room temperature for 10 min. Each well was supplied with 70 μl of 1 M phosphoric acid, and using the Plate Reader MTP-500 (Corona Electric), the absorbance of the well was instantly determined at a measurement wavelength of 450 nm. While defining the absorbance of a well supplied with the cell extract having no test substance as 100% HGFR autophosphorylation activity, and the absorbance of a well supplied with 50 μl of the lysis buffer as 0% HGFR autophosphorylation activity, the HGFR autophosphorylation activity (%) was calculated for each well.

| SMILES | IC50 [1] [nM] | IC50 [2] [nM] |
| --- | --- | --- |
| O=C(Nc1cc(Oc2ccc(NC(=O)C3(C(=O)Nc4ccc(F)cc4)CC3)c(F)c2)ccn1)N1CCC(N2CCCC2)CC1 [Example 4, N-(4-Fluorophenyl)-N′-{2-fluoro-4-[(2-{[(4-pyrrolidin-1-ylpiperidin-1-yl)carbonyl]amino}pyridin-4-yl)oxy]phenyl}cyclopropane-1,1-dicarboxamide] | 21 | 14 |
| CN(C)CC1CCN(C(=O)Nc2cc(Oc3ccc(NC(=O)C4(C(=O)Nc5ccc(F)cc5)CC4)c(F)c3)ccn2)CC1 [Example 8, N-[4-({2-[({4-[(Dimethylamino)methyl]piperidin-1-yl}carbonyl)amino]pyridin-4-yl}oxy)-2-fluorophenyl]-N′-(4-fluorophenyl)cyclopropane-1,1-dicarboxamide] | 20 | 14 |
| O=C(Nc1cc(Oc2ccc(NC(=O)C3(C(=O)Nc4ccc(F)cc4)CC3)cc2F)ccn1)N1CCC(N2CCCC2)CC1 [Example 10, N-(4-Fluorophenyl)-N′-{3-fluoro-4-[(2-{[(4-pyrrolidin-1-ylpiperidin-1-yl)carbonyl]amino}pyridin-4-yl)oxy]phenyl}cyclopropane-1,1-dicarboxamide] | 42 | 21 |
| O=C(Nc1cc(Oc2ccc(NC(=O)C3(C(=O)Nc4ccc(F)cc4)CC3)cc2)ccn1)N1CCC(N2CCC2)CC1 [Example 13, N-{4-[(2-{[(4-Azetidin-1-ylpiperidin-1-yl)carbonyl]amino}pyridin-4-yl)oxy]phenyl}-N′-(4-fluorophenyl)cyclopropane-1,1-dicarboxamide] | 76 | 37 |
| CN(C)C1CCN(C(=O)Nc2cc(Oc3ccc(NC(=O)C4(C(=O)Nc5ccc(F)cc5)CC4)c(F)c3)ccn2)CC1 [Example 18, N-(4-{[2-({[4-(Dimethylamino)piperidin-1-yl]carbonyl}amino)pyridin-4-yl]oxy}-2-fluorophenyl)-N′-(4-fluorophenyl)cyclopropane-1,1-dicarboxamide] | 33 | 39 |
| CN(C)C1CCN(C(=O)Nc2cc(Oc3ccc(NC(=O)C4(C(=O)Nc5ccc(F)cc5)CC4)cc3F)ccn2)CC1 [Example 23, N-(4-{[2-({[4-(Dimethylamino)piperidin-1-yl]carbonyl}amino)pyridin-4-yl]oxy}-3-fluorophenyl)-N′-(4-fluorophenyl)cyclopropane-1,1-dicarboxamide] | 36 | 17 |
| O=C(Nc1cc(Oc2ccc(NC(=O)C3(C(=O)Nc4ccc(F)cc4)CC3)cc2)ccn1)N1CCC(CN2CCC2)CC1 [Example 27, N-(4-{[2-({f [4-(Azetidin-1-ylmethyl)piperidin-1-yl]carbonyl}amino)pyridin-4-yl]oxy}phenyl)-N′-(4-fluorophenyl)cyclopropane-1,1-dicarboxamide] | 48 | 32 |
| O=C(Nc1cc(Oc2ccc(NC(=O)C3(C(=O)Nc4ccc(F)cc4)CC3)cc2)ccn1)N1CCN(CCN2CCC2)CC1 [Example 28, N-(4-{[2-({[4-(2-Azetidin-1-ylethyl)piperazin-1-yl]carbonyl}amino)pyridin-4-yl]oxy}phenyl)-N′-(4-fluorophenyl)cyclopropane-1,1-dicarboxamide] | 54 | 43 |
| O=C(Nc1cc(Oc2ccc(NC(=O)C3(C(=O)Nc4ccc(F)cc4)CC3)cc2)ccn1)N1CCC(CN2CCCC2)CC1 [Example 29, N-(4-Fluorophenyl)-N′-(4-{[2-({[4-(pyrrolidin-1-ylmethyl)piperidin-1-yl]-carbonyl}amino)pyridin-4-yl]oxy}phenyl)cyclopropane-1,1-dicarboxamide] | 50 | 30 |
| CN(C)CCN1CCN(C(=O)Nc2cc(Oc3ccc(NC(=O)C4(C(=O)Nc5ccc(F)cc5)CC4)cc3)ccn2)CC1 [Example 30, N-[4-({2-[({4-[2-(Dimethylamino)ethyl]piperazin-1-yl}carbonyl)amino]pyridin-4-yl}oxy)phenyl]-N′-(4-fluorophenyl)cyclopropane-1,1-dicarboxamide] | 39 | 12 |

Compounds with a lower IC50 [1], results first:

| IC50 [1] [nM] | IC50 [2] [nM] | SMILES |
| --- | --- | --- |
| 17 | 18 | CN1CCC(N2CCN(C(=O)Nc3cc(Oc4ccc(NC(=O)C5(C(=O)Nc6ccc(F)cc6)CC5)c(F)c4)ccn3)CC2)CC1 [Example 16, N-(2-Fluoro-4-{[2-({[4-(1-methylpiperidin-4-yl)piperazin-1-yl]carbonyl}amino)pyridin-4-yl]oxy}phenyl)-N′-(4-fluorophenyl)cyclopropane-1,1-dicarboxamide] |
| 12 | 23 | CN1CCC(N2CCN(C(=O)Nc3cc(Oc4ccc(NC(=O)C5(C(=O)Nc6ccc(F)cc6)CC5)cc4F)ccn3)CC2)CC1 [Example 19, N-(3-Fluoro-4-{[2-({[4-(1-methylpiperidin-4-yl)piperazin-1-yl]carbonyl}amino)pyridin-4-yl]oxy}phenyl)-N′-(4-fluorophenyl)cyclopropane-1,1-dicarboxamide] |
| 15 | 22 | CN1CCN(C2CCN(C(=O)Nc3cc(Oc4ccc(NC(=O)C5(C(=O)Nc6ccc(F)cc6)CC5)cc4F)ccn3)CC2)CC1 [Example 20, N-(3-Fluoro-4-{[2-({[-4-(4-methylpiperazin-1-yl)piperidin-1-yl]-carbonyl}amino)pyridin-4-yl]oxy}phenyl)-N′-(4-fluorophenyl)cyclopropane-1,1-dicarboxamide] |
| 13 | 21 | CN1CC(N2CCN(C(=O)Nc3cc(Oc4ccc(NC(=O)C5(C(=O)Nc6ccc(F)cc6)CC5)cc4F)ccn3)CC2)C1 [Example 22, N-(3-Fluoro-4-{[2-({[4-(1-methylazetidin-3-yl)piperazin-1-yl]carbonyl}amino)pyridin-4-yl]oxy}phenyl)-N′-(4-fluorophenyl)cyclopropane-1,1-dicarboxamide] |
| 17 | 27 | CN(C)[C@H]1CCN(C(=O)Nc2cc(Oc3ccc(NC(=O)C4(C(=O)Nc5ccc(F)cc5)CC4)cc3F)ccn2)C1 [Example 24, N-(4-{[2-({[(3S)-3-(Dimethylamino)pyrrolidin-1-yl]carbonyl}amino)pyridin-4-yl]oxy}-3-fluorophenyl)-N′-(4-fluorophenyl)cyclopropane-1,1-dicarboxamide] |
| 19 | 4.6 | CN(C)CCN1CCC(N(C)C(=O)Nc2cc(Oc3ccc(NC(=O)C4(C(=O)Nc5ccc(F)cc5)CC4)c(F)c3)ccn2)CC1 [Example 25, N-(4-{[2-({[{1-[2-(Dimethylamino)ethyl]piperidin-4-yl}(methyl)amino]carbonyl}amino)pyridin-4-yl]oxy}-2-fluorophenyl)-N′-(4-fluorophenyl)cyclopropane-1,1-dicarboxamide] |
| 19 | 8.4 | O=C(Nc1cc(Oc2ccc(NC(=O)C3(C(=O)Nc4ccc(F)cc4)CC3)cc2F)ccn1)N1CCC(CN2CCC2)CC1 [Example 26, N-(4-{[2-({[4-(Azetidin-1-ylmethyl)piperidin-1-yl]carbonyl}amino)pyridin-4-yl]oxy}-3-fluorophenyl)-N′-(4-fluorophenyl)cyclopropane-1,1-dicarboxamide] |

Source: US7855290B2, “Pyridine derivatives and pyrimidine derivatives (3)” (Eisai R&D Management Co., Ltd., priority 2005, dated 2010)
